Consider 23 compounds from US20150274719A1, “AMINO-SUBSTITUTED IMIDAZO[1,2-A]PYRIDINECARBOXAMIDES AND THEIR USE” (BAYER PHARMA AKTIENGESELLSCHAFT, priority 2012, published 2015).

Where a name gives a salt, the structure may show the parent alone.

The target in this test is T1, recombinant guanylate cyclase reporter cell line (Rattus norvegicus, UniProt P19686+P20595).
T1 construct: expressed in transfected cells; host or cells: recombinant reporter cell line
T1 sequence (P19686 1-690): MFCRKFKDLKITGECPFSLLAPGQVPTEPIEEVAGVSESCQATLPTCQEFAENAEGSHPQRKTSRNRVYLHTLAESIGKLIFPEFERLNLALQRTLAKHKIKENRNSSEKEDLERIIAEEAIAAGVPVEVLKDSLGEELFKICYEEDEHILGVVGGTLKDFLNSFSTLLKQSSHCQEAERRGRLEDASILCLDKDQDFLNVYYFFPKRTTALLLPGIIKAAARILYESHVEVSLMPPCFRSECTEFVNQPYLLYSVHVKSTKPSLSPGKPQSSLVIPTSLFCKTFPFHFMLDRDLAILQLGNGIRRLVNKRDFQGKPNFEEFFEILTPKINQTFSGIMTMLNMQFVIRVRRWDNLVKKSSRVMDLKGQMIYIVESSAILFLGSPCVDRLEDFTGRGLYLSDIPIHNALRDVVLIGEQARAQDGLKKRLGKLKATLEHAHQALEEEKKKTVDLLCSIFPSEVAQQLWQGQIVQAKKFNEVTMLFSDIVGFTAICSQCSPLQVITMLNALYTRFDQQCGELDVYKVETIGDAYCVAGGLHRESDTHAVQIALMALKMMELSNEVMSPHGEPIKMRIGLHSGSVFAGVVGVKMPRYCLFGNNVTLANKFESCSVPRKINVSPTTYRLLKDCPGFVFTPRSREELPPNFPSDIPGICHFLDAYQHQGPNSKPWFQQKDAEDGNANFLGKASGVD
T1 sequence (P20595 1-619): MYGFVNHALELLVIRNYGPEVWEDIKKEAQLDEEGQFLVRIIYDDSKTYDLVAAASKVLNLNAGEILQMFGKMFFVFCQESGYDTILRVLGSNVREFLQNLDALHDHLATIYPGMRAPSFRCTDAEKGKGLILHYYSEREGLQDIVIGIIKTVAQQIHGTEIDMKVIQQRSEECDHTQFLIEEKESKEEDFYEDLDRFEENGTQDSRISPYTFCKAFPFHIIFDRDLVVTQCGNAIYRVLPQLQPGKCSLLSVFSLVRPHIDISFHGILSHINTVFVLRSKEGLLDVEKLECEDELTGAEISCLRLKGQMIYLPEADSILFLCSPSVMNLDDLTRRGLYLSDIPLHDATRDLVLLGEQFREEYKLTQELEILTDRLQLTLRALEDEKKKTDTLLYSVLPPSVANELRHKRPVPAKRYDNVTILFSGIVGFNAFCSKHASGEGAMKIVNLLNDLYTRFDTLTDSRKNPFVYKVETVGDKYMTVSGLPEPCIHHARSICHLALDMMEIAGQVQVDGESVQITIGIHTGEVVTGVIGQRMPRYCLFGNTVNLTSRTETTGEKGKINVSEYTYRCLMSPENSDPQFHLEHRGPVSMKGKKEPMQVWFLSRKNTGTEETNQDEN
The test is described as follows: Action on recombinant guanylate cyclase reporter cell line. The conditions noted are these: in some cases mean values from individual determinations. Type of test: cell-based. The gist of the method:
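Compounds are tested on whole cells carrying a guanylate cyclase reporter construct. The lowest concentration giving an effect is recorded as the MEC.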
With `COc1cccc(C(N)CNC(=O)c2c(C)nc3c(OCc4c(F)cccc4F)cc(C)cn23)c1` (racemic) [Example 378, rac-N-[2-amino-2-(3-methoxyphenyl)ethyl]-8-[(2,6-difluorobenzyl)oxy]-2,6-dimethylimidazo[1,2-a]pyridine-3-carboxamide], the “MEC (minimal effective concentration)” value is 1.00 µM.

In the case of `Cc1cc(OCc2c(F)cccc2F)c2nc(C)c(C(=O)NC3CNCC(F)(F)C3)n2c1` (racemic) [Example 312, rac-8-[(2,6-difluorobenzyl)oxy]-N-(5,5-difluoropiperidin-3-yl)-2,6-dimethylimidazo[1,2-a]pyridine-3-carboxamide], the “MEC (minimal effective concentration)” value was 0.30 µM.

Consider `Cc1nc2c(OCc3c(F)cccc3F)cccn2c1C(=O)NCC(N)C(F)(F)F` (racemic) [Example 207, rac-N-(2-Amino-3,3,3-trifluoropropyl)-8-[(2,6-difluorobenzyl)oxy]-2-methylimidazo[1,2-a]-pyridine-3-carboxamide], for which the “MEC (minimal effective concentration)” value worked out at 1.00 µM.

In the case of `Cc1cc(OCc2c(F)cccc2F)c2nc(C)c(C(=O)NCCN3CCOCC3)n2c1` [Example 136, 8-[(2,6-difluorobenzyl)oxy]-2,6-dimethyl-N-[2-(morpholin-4-yl)ethyl]imidazo[1,2-a]pyridine-3-carboxamide], the “MEC (minimal effective concentration)” value was found to be 0.10 µM.

`Cc1cc(OCc2c(F)cccc2F)c2nc(C)c(C(=O)NC(CN)c3cccc(Br)c3)n2c1` (racemic) [Example 383, rac-N-[2-amino-1-(3-bromophenyl)ethyl]-8-[(2,6-difluorobenzyl)oxy]-2,6-dimethylimidazo[1,2-a]pyridine-3-carboxamide]: the “MEC (minimal effective concentration)” value stood at 0.30 µM.

In the case of `Cc1nc2c(OCc3c(F)cccc3F)cccn2c1C(=O)NCC(N)CC(F)(F)F` (single isomer, unassigned) [Example 126, ent-N-(2-Amino-4,4,4-trifluorobutyl)-8-[(2,6-difluorobenzyl)oxy]-2-methylimidazo[1,2-a]pyridine-3-carboxamide], the “MEC (minimal effective concentration)” value amounted to 0.30 µM.

In the case of `Cc1cc(OCc2c(F)cccc2F)c2nc(C)c(C(=O)NCC3(N)COC3)n2c1` [Example 216, N-[(3-Aminooxetan-3-yl)methyl]-8-[(2,6-difluorobenzyl)oxy]-2,6-dimethylimidazo[1,2-a]pyridine-3-carboxamide], the “MEC (minimal effective concentration)” value is 1.00 µM.

In the case of `CCCC(C)(N)CNC(=O)c1c(C)nc2c(OCc3c(F)cccc3OC)cc(C)cn12` (racemic) [Example 351, rac-N-(2-amino-2-methylpentyl)-8-[(2-fluoro-6-methoxybenzyl)oxy]-2,6-dimethylimidazo[1,2-a]pyridine-3-carboxamide], the “MEC (minimal effective concentration)” value worked out at 3.00 µM.

For `CCCC(C)(N)CNC(=O)c1c(C(F)(F)F)nc2c(OCc3c(F)cccc3F)cc(C)cn12` (stereo not drawn) [Example 305, ent-N-(2-amino-2-methylpentyl)-8-[(2,6-difluorobenzyl)oxy]-6-methyl-2-(trifluoromethyl)imidazo[1,2-a]pyridine-3-carboxamide], the “MEC (minimal effective concentration)” value turned out to be 0.10 µM.

Turning to `Cc1nc2c(OCc3c(F)cccc3F)cccn2c1C(=O)NCCN1CCN(C2CC2)CC1` [Example 168, N-[2-(4-Cyclopropylpiperazin-1-yl)ethyl]-8-[(2,6-difluorobenzyl)oxy]-2-methylimidazo[1,2-a]-pyridine-3-carboxamide], the “MEC (minimal effective concentration)” value was 1.00 µM.

Turning to `Cc1nc2c(OCc3c(F)ccc(F)c3F)cccn2c1C(=O)NC(CN)c1ccc(F)c(F)c1` (stereo not drawn) [Example 100, ent-N-[2-amino-1-(3,4-difluorophenyl)ethyl]-2-methyl-8-[(2,3,6-trifluorobenzyl)oxy]imidazo[1,2-a]pyridine-3-carboxamide], the “MEC (minimal effective concentration)” value was 0.30 µM.

Take `Cc1nc2c(OCc3c(F)cccc3F)cc(Cl)cn2c1C(=O)NCCN1CCN(C(C)C)CC1` [Example 152, 6-chloro-8-[(2,6-difluorobenzyl)oxy]-N-[2-(4-isopropylpiperazin-1-yl)ethyl]-2-methyl-imidazo[1,2-a]pyridine-3-carboxamide]: the “MEC (minimal effective concentration)” value is 1.00 µM.

Take `Cc1nc2c(OCc3c(F)cccc3F)cccn2c1C(=O)NCC(C)N1CCOCC1` (single isomer, unassigned; ent-8) [Example 180, ent-8-[(2,6-Difluorobenzyl)oxy]-2-methyl-N-[2-(morpholin-4-yl)propyl]imidazo[1,2-a]pyridine-3-carboxamide]: the “MEC (minimal effective concentration)” value came to 1.00 µM.

As for `Cc1cc(OCc2c(F)cccc2F)c2nc(C)c(C(=O)NCC(N)c3ccc4ncccc4c3)n2c1` (racemic) [Example 372, rac-N-[2-amino-2-(quinolin-6-yl)ethyl]-8-[(2,6-difluorobenzyl)oxy]-2,6-dimethylimidazo[1,2-a]pyridine-3-carboxamide], the “MEC (minimal effective concentration)” value was 3.00 µM.

With `Cc1cc(OCc2c(F)cccc2F)c2nc(C)c(C(=O)NC(CN)c3ccc([N+](=O)[O-])cc3)n2c1` (racemic) [Example 384, rac-N-[2-amino-1-(4-nitrophenyl)ethyl]-8-[(2,6-difluorobenzyl)oxy]-2,6-dimethylimidazo[1,2-a]pyridine-3-carboxamide], the “MEC (minimal effective concentration)” value amounted to 0.30 µM.

Regarding `Cc1nc2c(OCc3c(F)cccc3F)cccn2c1C(=O)NC1CC2CCCC(C1)N2C` (centres unmarked) [Example 90, 8-[(2,6-difluorobenzyl)oxy]-2-methyl-N-(9-methyl-9-azabicyclo[3.3.1]non-3-yl)imidazo[1,2-a]pyridine-3-carboxamide], the “MEC (minimal effective concentration)” value is 0.10 µM.

Consider `Cc1nc2c(OCc3c(F)cccc3F)cccn2c1C(=O)NCC(C)CN` (single isomer, unassigned) [Example 96, ent-N-(3-Amino-2-methylpropyl)-8-[(2,6-difluorobenzyl)oxy]-2-methylimidazo[1,2-a]pyridine-3-carboxamide dihydrochloride], for which the “MEC (minimal effective concentration)” value amounted to 1.00 µM.

For `Cc1nc2c(OCc3c(F)cccc3F)cccn2c1C(=O)NCC(C)CN` (single isomer, unassigned) [Example 95, ent-N-(3-Amino-2-methylpropyl)-8-[(2,6-difluorobenzyl)oxy]-2-methylimidazo[1,2-a]pyridine-3-carboxamide dihydrochloride], the “MEC (minimal effective concentration)” value came to 1.00 µM.

With `Cc1nc2c(OCc3c(F)cccc3F)cccn2c1C(=O)NCC1(N)CC1` [Example 38, N-[(1-aminocyclopropyl)methyl]-8-[(2,6-difluorobenzyl)oxy]-2-methylimidazo[1,2-a]-pyridine-3-carboxamide], the “MEC (minimal effective concentration)” value came to 0.40 µM.

Regarding `Cc1cc(OCc2c(F)cccc2F)c2nc(C)c(C(=O)NC(CN)c3ccc(C#N)cc3)n2c1` (centres unmarked) [Example 398], the “MEC (minimal effective concentration)” value worked out at 0.30 µM.

For the compound `Cc1nc2c(OCc3c(F)cccc3F)cc(Cl)cn2c1C(=O)NCC(C)(N)C(F)(F)F` (single isomer, unassigned) [Example 238, ent-N-(2-Amino-3,3,3-trifluoro-2-methylpropyl)-6-chloro-8-[(2,6-difluorobenzyl)oxy]-2-methyl-imidazo[1,2-a]pyridine-3-carboxamide], the “MEC (minimal effective concentration)” value is 1.00 µM.

For `Cc1cc(OCc2c(F)cccc2F)c2nc(C)c(C(=O)NCC(C)(C)NCC(F)(F)F)n2c1` [Example 94, 8-[(2,6-Difluorobenzyl)oxy]-2,6-dimethyl-N-{2-methyl-2-[(2,2,2-trifluoroethyl)amino]propyl}-imidazo[1,2-a]pyridine-3-carboxamide], the “MEC (minimal effective concentration)” value stood at 0.30 µM.

For `Cc1nc2c(OCc3c(F)cccc3F)cccn2c1C(=O)NC1CNCc2ccccc21` (single isomer, unassigned; ent-8) [Example 110, ent-8-[(2,6-difluorobenzyl)oxy]-2-methyl-N-(1,2,3,4-tetrahydroisoquinolin-4-yl)imidazo[1,2-a]pyridine-3-carboxamide], the “MEC (minimal effective concentration)” value turned out to be 0.30 µM.
